Where two headings read alike, the source gives them in different places.
Columns and labels:
[1] = target: mPAD4 (Mus musculus, UniProt Q9Z183); experiment: mPAD4 RFMS PAD4 inhibition assay; format: biochemical; settings: mPAD4, RFMS readout;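 for mPAD4 RFMS pIC50: grade E means pIC50 at most 4 and F means pIC50 4.0 to 5.0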
Experimental: (§1) Compounds of the present invention were assayed as inhibitors of PAD4 using the assay protocol described below.
(§2) Compound stock solutions were stored at RT. […] Final assay conditions were as follows:
(§3) Total incubation time: 65 mins at 37° C.
(§4) Stop solution: 40 μl 5% TCA in ACN
(§5) The compound numbers correspond to the compound numbers in Table 1. […] The term pIC50=−log(IC50). […] “NA” stands for “not assayed.”

[2] = target: hPAD4 (Homo sapiens, UniProt Q9UM07); experiment: hPAD4 RFMS (RapidFire mass spectrometry) PAD4 inhibition assay; format: biochemical; settings: hPAD4 enzyme, RFMS readout;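 for hPAD4 RFMS pIC50: grade E means pIC50 at most 4 and F means pIC50 4.0 to 5.0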
Experimental: as §1, §2, §3, §4, §5

[3] = pIC50=−log(IC50), read-out: mPAD4 RFMS pIC50 (converted)
[4] = pIC50=−log(IC50), read-out: hPAD4 RFMS pIC50 (converted)

Chain of hPAD4 (Q9UM07 whole entry): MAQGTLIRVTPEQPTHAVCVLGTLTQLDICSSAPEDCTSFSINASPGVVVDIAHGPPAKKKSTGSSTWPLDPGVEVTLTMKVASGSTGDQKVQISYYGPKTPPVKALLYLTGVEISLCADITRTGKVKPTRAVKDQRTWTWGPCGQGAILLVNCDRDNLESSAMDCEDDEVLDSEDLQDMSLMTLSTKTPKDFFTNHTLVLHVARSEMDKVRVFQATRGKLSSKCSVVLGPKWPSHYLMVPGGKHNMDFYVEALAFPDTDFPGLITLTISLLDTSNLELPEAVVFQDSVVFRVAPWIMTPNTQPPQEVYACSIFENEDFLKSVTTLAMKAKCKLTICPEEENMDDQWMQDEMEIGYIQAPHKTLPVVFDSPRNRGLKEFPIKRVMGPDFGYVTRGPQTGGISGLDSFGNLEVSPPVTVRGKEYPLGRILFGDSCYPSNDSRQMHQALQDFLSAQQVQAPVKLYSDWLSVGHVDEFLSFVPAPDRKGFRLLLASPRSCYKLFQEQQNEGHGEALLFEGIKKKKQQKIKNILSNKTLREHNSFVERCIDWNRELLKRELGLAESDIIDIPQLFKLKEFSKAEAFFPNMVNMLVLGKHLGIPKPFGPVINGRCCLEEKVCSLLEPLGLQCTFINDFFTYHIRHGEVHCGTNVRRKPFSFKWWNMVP
Chain of mPAD4 (Q9Z183 whole entry): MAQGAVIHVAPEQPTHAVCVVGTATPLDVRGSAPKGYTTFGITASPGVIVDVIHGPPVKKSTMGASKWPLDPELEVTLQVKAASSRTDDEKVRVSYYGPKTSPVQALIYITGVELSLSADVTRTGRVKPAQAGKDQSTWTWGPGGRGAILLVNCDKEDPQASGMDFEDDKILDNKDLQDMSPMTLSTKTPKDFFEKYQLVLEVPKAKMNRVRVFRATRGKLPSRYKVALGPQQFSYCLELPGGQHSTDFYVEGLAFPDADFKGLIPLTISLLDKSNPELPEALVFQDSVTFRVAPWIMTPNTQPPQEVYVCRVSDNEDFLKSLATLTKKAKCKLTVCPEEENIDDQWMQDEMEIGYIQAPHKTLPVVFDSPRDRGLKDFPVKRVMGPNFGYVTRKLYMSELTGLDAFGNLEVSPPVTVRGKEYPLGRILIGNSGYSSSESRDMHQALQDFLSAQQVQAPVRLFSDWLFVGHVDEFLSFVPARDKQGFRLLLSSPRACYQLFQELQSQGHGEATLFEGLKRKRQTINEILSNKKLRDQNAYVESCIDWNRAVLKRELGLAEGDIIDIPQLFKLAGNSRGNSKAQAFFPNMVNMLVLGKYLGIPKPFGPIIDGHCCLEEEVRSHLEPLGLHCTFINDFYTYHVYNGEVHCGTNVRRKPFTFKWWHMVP

IC50 [1, 3]	IC50 ([1]; read-out: mPAD4 RFMS IC50)	IC50 [2, 4]	IC50 ([2]; read-out: hPAD4 RFMS IC50)	SMILES
10000 to 100000 nM	> 10000 nM	10000 to 100000 nM	> 10000 nM	Cn1c(-c2cc3cccnc3n2CC2CC2)nc2cc(C(=O)N3CC[C@@H](F)[C@H](N)C3)ccc21 [Compound I-55]
< 1000 nM	< 1000 nM	< 1000 nM	< 1000 nM	CCn1c(-c2nc3cc(C(=O)N4CCC[C@@H](N)C4)cc(OC)c3n2C)cc2ccc(OC)nc21 [Compound I-135]
1000 to 10000 nM	1000 to 5000 nM	1000 to 10000 nM	< 1000 nM	Cn1c(-c2cc3cccnc3n2CC2CC2)nc2cc(C(=O)N3C[C@@H](N)C[C@H](F)C3)ccc21 [Compound I-66]
1000 to 10000 nM	1000 to 5000 nM	1000 to 10000 nM	1000 to 5000 nM	COc1ccc2cc(-c3nc4cc(C(=O)N5CC[C@@H](OC)[C@@H](N)C5)ccc4n3C)n(CC3CC3)c2n1 [Compound I-127]
10000 to 100000 nM	> 10000 nM	10000 to 100000 nM	> 10000 nM	CO[C@H]1CCN(C(=O)c2ccc3c(c2)nc(-c2cc4cccnc4n2CC2CC2)n3C)C[C@H]1N (single isomer, unassigned) [Compound I-65]
1000 to 10000 nM	1000 to 5000 nM	1000 to 10000 nM	1000 to 5000 nM	CCn1c(-c2nc3cc(C(=O)N4CCC[C@@H](N)C4)cc(OC)c3n2CCOC)cc2cccnc21 [Compound I-176]
1000 to 10000 nM	1000 to 5000 nM	< 1000 nM	< 1000 nM	COc1cc(C(=O)N2C[C@H]3CC[C@@H]2[C@@H]3N)cc2nc(-c3cc4cnc(C)nc4n3CC3CC3)n(C)c12 [Compound I-202, (1R,4R,7R)-2-{2-[7-(Cyclopropylmethyl)-2-methyl-7H-pyrrolo[2,3-d]pyrimidin-6-yl]-7-methoxy-1-methyl-1H-1,3-benzodiazole-5-carbonyl}-2-azabicyclo[2.2.1]heptan-7-amine]
< 1000 nM	< 1000 nM	< 1000 nM	< 1000 nM	CCCn1c(-c2nc3cc(C(=O)N4CCC[C@@H](N)C4)cc(OC)c3n2C)cc2cccnc21 [Compound I-149]
1000 to 10000 nM	1000 to 5000 nM	1000 to 10000 nM	5000 to 10000 nM	COc1cc(C(=O)N2C[C@H](N)CC[C@@H]2CO)cc2nc(-c3cc4cccnc4n3CC3CC3)n(C)c12 (single isomer, unassigned) [Compound I-228]
< 1000 nM	< 1000 nM	< 1000 nM	< 1000 nM	COc1cc(C(=O)N2CCC[C@@H](N)C2)cc2nc(-c3cc4ccc(C)nc4n3CC3CC3)n(C)c12 [Compound I-199]
< 1000 nM	< 1000 nM	1000 to 10000 nM	1000 to 5000 nM	CCn1c(-c2nc3cc(C(=O)N4CCC[C@@H](N)C4)cc(OC)c3n2C[C@H]2C[C@@](C)(OC)C2)cc2cccnc21 [Compound I-163]
< 1000 nM	< 1000 nM	1000 to 10000 nM	1000 to 5000 nM	CCOc1cc(C(=O)N2CC(N)CCC2C)cc2nc(-c3cc4cccnc4n3CC3CC3)n(C)c12 (stereo not shown) [Compound I-111]
1000 to 10000 nM	1000 to 5000 nM	1000 to 10000 nM	1000 to 5000 nM	COc1cc(C(=O)N2CCC[C@@H](N)C2)cc2nc(-c3cc4cccnc4n3[C@H](C)C3CC3)n(C)c12 [Compound I-101, (3R)-1-(2-{1-[(1R)-1-cyclopropylethyl]-1H-pyrrolo[2,3-b]pyridin-2-yl}-7-methoxy-1-methyl-1H-1,3-benzodiazole-5-carbonyl)piperidin-3-amine]
< 1000 nM	< 1000 nM	< 1000 nM	< 1000 nM	COCCn1c(-c2cc3cccnc3n2CC2CC2)nc2cc(C(=O)N3C[C@H]4CC[C@@H]3[C@@H]4N)cc(OC)c21 [Compound I-178]
1000 to 10000 nM	1000 to 5000 nM	1000 to 10000 nM	1000 to 5000 nM	COc1cc(C(=O)N2CCC(F)C(N)C2)cc2nc(-c3cc4cccnc4n3CC3CC3)n(C)c12 (stereo not shown) [Compound I-56]
1000 to 10000 nM	1000 to 5000 nM	1000 to 10000 nM	1000 to 5000 nM	COCCn1c(-c2nc3cc(C(=O)N4C[C@@H](N)CC[C@H]4C)cc(OC)c3n2C)cc2cccnc21 [Compound I-190]
< 1000 nM	< 1000 nM	1000 to 10000 nM	1000 to 5000 nM	CCn1c(-c2cc3ccc(OC)nc3n2CC2CC2)nc2cc(C(=O)N3C[C@@H](N)C[C@H](F)C3)cc(OC)c21 [Compound I-92]
< 1000 nM	< 1000 nM	< 1000 nM	< 1000 nM	COc1ccc2cc(-c3nc4cc(C(=O)N5CCC[C@@H](N)C5)ccc4n3C)n(CC3CC3)c2n1 [Compound I-70, (3R)-1-{2-[1-(Cyclopropylmethyl)-6-methoxy-1H-pyrrolo[2,3-b]pyridin-2-yl]-1-methyl-1H-1,3-benzodiazole-5-carbonyl}piperidin-3-amine]
1000 to 10000 nM	5000 to 10000 nM	10000 to 100000 nM	5000 to 10000 nM	COc1cc(C(=O)N2CC[C@@H]3OCCN[C@@H]3C2)cc2nc(-c3cc4cccnc4n3CC3CC3)n(C)c12 [Compound I-29]

— patent US9963448B2, “Bicyclic inhibitors of PAD4” (Padlock Therapeutics, Inc., priority 2015, dated 2018)
